Consider eleven compounds from paper PMC11583123, “Linker Chemistry and Connectivity Fine-Tune the Immune Response and Kinetic Solubility of Conjugated NOD2/TLR7 Agonists” (Bioconjugate Chemistry, 2024).

Data set [1] in a line: Kinetic solubility in PBS (UHPLC, method of Hoelke et al.). The conditions noted are these: for solubility kinetic: PBS, aqueous with cosolvent or surfactant or cyclodextrin, kinetic from dmso stock, 5% DMSO. It is filed as physicochemical. The procedure: Second, the kinetic solubility of all individual building blocks (compounds 4-7) and conjugates was determined (results are listed in Table 1) in order to highlight how fine-tuning of linker traits can impact this physicochemical property. Kinetic solubility refers to the maximum solubility of a compound when it precipitates from a supersaturated solution, which is metastable and not in equilibrium; it was measured using the method described by Hoelke et al.[34] The length and composition of the linker as well as linkage site are important for activity and physicochemical characteristics of conjugates, which in turn affect their pharmacokinetic profiles. In general, the benzylic COOH was exploited exclusively as the linker attachment site in TLR7 agonist-featuring conjugates, while two potential linkage sites were considered in the structure of NOD2 agonist. […] In conjugates 22-24 and 29, the moieties were connected via the γ-COOH group of the NOD2 agonist. […] It has to be kept in mind that among the polyalkylethers, the structural requirements for aqueous solubility are poised toward the (−OCH2CH2−)n unit while (−OCH2CH2CH2−)n is not beneficial in this respect.[35] […]
suspension was filtered through a syringe filter (0.45 μm), diluted 2.25-fold with acetonitrile, and analyzed with UHPLC. The solubility was quantified with a five-point calibration curve from 500 to 0.8 μM generated by dilution of the original DMSO solution into a 1:1 mixture of acetonitrile and PBS. The content of DMSO in all solutions was fixed to 5% by adding the respective amounts of DMSO. The column used was Waters Acquity UPLC BEH C18 (1.7 μm, 2.1 × 50 mm). The eluent was a mixture of 0.1% TFA in water (A) and acetonitrile (B), with a gradient of (%B): 0−6 min, 5−95%; 6−8 min, 95%; 8−8.5 min, 95−5%. The column was thermostated at 40 °C.
3.1. Hek-Blue NOD2, TLR7 and TLR8 cells. […]
(BioTek Synergy microplate reader; Winooski, VT, USA). EC50 values were calculated using Prism

For the next data set, the target named is T1, human TLR7 (Homo sapiens, UniProt Q9NYK1).
T1 construct: host or cells: HEK-Blue TLR7 (HEK293-derived)
T1 sequence (Q9NYK1 27-1049): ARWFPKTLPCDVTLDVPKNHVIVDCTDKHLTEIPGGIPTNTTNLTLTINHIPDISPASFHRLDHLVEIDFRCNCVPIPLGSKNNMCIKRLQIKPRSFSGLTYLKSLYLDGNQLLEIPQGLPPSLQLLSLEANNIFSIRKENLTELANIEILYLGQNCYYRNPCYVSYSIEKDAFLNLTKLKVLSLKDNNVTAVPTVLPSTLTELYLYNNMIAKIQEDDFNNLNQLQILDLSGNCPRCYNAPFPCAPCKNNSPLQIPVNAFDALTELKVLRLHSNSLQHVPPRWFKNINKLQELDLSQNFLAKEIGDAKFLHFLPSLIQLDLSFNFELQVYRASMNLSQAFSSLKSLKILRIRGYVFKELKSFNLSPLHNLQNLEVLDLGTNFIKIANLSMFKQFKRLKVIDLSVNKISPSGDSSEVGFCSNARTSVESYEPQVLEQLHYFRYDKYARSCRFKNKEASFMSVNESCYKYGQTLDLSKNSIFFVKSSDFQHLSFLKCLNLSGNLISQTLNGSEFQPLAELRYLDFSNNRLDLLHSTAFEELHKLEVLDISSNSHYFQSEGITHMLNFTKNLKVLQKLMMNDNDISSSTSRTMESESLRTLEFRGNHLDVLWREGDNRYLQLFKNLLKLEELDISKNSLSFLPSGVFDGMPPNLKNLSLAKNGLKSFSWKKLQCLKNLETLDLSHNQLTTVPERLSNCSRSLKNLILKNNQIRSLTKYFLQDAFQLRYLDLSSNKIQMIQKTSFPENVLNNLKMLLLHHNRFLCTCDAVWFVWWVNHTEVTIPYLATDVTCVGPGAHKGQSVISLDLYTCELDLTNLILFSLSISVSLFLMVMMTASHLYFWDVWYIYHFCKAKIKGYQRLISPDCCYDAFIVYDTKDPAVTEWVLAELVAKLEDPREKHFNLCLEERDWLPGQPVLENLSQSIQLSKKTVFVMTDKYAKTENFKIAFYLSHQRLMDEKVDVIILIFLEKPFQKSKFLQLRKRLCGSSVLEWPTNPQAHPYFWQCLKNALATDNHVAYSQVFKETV
The experiment in a line: HEK-Blue TLR7 NF-κB SEAP reporter assay. The conditions noted are these: for EC50 / TLR7 agonistic activity (in words): HEK-Blue TLR7 cells; for EC50: 18 h, eight concentrations (1 nM to 10 μM), mean ± SEM; for TLR7 agonistic activity (in words): up to 10 μM. In kind it is cell-based. The text has this: (§1) The building blocks and synthesized conjugates were initially assessed for their receptor-specific activities toward NOD2, TLR7 and TLR8 using the commercially available HEK-Blue NOD2, TLR7 and TLR8 reporter cell lines. These cell lines were derived from HEK293 cells by cotransfection of human NOD2/TLR7/TLR8 and an NF-κB-inducible secreted embryonic alkaline phosphatase (SEAP). Activation of NOD2/TLR7/TLR8, and subsequently of NF-κB, leads to the expression and secretion of SEAP, the levels of which can be quantified colorimetrically. […]
(§2) 3.1. Hek-Blue NOD2, TLR7 and TLR8 cells.
(§3) HEK-Blue NOD2, TLR7, and TLR8 cells (Invivogen, San Diego, CA, USA) were cultured according to the manufacturer instructions in Dulbecco’s modified Eagle’s medium (Sigma-Aldrich, St. Louis, MO, USA) supplemented with 10% heat-inactivated fetal bovine serum (Gibco), 2 mM L-glutamine (Sigma-Aldrich), 100 U/mL penicillin (Sigma-Aldrich), 100 µg/mL streptomycin (Sigma-Aldrich), and 100 µg/mL Normocin (Invivogen) for two passages. All subsequent passages of NOD2 and TLR8 cells were cultured in medium additionally supplemented with 100 µg/mL Zeocin and 30 µg/mL Blasticidin (Invivogen) and of TLR7 cells with 100 µg/mL Zeocin and 10 µg/mL Blasticidin. […]
(§4) The tested compounds were dissolved in DMSO and further diluted in culture medium to the desired final concentrations, such that the final DMSO concentration never exceeded 0.1%. […]
(§5) 3.4 NOD2/TLR7/TLR8 NF-kB reporter assay
(§6) HEK-Blue NOD2 cells (25,000 cells/well), TLR7 and TLR8 cells (40,000 cells/well) were seeded in 96-well plates in 100 µL HEK-Blue detection medium (Invivogen, San Diego, CA, USA) and treated with […]
(§7) corresponding vehicle (0.1% DMSO). After 18 h of incubation (37 °C, 5% CO2), secreted embryonic

Another data set addresses T2, human NOD2 (Homo sapiens, UniProt Q9HC29).
T2 construct: host or cells: HEK-Blue NOD2 (HEK293-derived)
As to the kind of experiment: HEK-Blue NOD2 NF-κB SEAP reporter assay. It is filed as cell-based. The conditions noted are these: HEK-Blue NOD2 cells.
Description: as §1, §2, §3, §4, §5, §6, §7

The target in a further data set is T3, human TLR8 (Homo sapiens, UniProt Q9NR97).
T3 construct: host or cells: HEK-Blue TLR8 (HEK293-derived)
T3 sequence (Q9NR97 27-1041): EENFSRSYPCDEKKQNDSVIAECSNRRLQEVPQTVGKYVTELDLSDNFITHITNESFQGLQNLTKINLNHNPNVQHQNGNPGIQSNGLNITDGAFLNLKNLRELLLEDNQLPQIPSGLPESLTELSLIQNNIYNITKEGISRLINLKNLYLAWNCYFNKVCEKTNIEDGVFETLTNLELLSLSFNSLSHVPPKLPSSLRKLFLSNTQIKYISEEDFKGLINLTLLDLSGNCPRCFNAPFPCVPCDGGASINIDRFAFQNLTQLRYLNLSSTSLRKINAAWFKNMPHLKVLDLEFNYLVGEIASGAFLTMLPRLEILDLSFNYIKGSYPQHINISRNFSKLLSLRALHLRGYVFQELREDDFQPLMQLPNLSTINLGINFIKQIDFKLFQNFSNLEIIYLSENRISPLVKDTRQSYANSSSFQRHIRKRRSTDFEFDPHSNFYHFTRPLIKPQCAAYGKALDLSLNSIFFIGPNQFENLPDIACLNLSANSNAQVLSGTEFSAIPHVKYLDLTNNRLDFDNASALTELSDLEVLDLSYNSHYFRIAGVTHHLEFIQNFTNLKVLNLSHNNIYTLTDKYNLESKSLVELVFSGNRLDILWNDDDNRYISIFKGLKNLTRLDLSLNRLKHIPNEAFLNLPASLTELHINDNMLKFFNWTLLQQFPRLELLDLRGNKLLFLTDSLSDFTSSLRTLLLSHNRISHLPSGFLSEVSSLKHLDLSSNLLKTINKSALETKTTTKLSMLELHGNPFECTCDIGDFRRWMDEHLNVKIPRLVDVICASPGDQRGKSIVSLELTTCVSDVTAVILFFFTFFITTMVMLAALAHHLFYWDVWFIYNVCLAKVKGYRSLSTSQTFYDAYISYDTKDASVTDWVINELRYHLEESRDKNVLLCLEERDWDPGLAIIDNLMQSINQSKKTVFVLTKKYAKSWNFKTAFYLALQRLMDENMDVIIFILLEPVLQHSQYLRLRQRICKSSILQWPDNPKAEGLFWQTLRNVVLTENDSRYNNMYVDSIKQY
The experiment in a line: HEK-Blue TLR8 NF-κB SEAP reporter assay. It is filed as cell-based. As to conditions: HEK-Blue TLR8 cells, 18 h, eight concentrations (1 nM to 10 μM), mean ± SEM.
Description: as §1, §2, §3, §4, §5, §6, §7

The mark [2] stands for this setting: 18 h, eight concentrations (1 nM to 10 μM), mean ± SEM.

T2 sequence (Q9HC29 whole entry): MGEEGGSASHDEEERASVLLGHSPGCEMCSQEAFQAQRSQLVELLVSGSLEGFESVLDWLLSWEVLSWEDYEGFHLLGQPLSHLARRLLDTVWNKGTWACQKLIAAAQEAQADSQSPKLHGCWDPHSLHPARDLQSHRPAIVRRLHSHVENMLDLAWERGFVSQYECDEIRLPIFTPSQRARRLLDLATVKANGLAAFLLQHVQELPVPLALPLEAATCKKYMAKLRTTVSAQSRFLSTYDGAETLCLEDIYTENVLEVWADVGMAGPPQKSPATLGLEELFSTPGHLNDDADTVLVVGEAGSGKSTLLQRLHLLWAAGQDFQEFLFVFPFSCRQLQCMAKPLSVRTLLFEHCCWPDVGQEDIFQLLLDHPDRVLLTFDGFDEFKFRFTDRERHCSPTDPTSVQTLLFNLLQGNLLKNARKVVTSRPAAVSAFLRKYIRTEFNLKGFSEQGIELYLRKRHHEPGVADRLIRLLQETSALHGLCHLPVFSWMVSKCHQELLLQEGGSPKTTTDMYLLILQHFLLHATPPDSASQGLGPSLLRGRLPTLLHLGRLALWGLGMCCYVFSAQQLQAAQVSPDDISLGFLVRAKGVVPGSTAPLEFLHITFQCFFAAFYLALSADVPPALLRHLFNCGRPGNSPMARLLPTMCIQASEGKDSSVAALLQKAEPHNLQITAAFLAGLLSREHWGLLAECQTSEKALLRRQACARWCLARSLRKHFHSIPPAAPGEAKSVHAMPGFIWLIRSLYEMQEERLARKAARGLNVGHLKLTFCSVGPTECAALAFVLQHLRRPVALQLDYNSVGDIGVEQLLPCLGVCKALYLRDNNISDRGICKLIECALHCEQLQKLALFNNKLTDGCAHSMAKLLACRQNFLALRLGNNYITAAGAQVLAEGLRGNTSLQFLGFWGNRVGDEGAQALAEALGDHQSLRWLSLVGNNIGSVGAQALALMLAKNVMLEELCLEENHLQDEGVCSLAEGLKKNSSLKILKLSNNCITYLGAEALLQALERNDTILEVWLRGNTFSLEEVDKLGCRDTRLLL

As to `CCOCc1nc2c(N)nc3ccccc3c2n1CC(C)(C)O` [Resiquimod (6), Resiquimod, reference compound], the kinetic solubility in data set [1] came to 469 µM.

With `CCCCOc1nc(N)c2nc(O)n(Cc3ccc(C(=O)NCCCCCC(=O)Oc4ccc(/C=C/C(=O)NCC(=O)N[C@H](C(=O)N[C@H](CCC(=O)OCC)C(=O)OCC)C(C)C)cc4OC)cc3)c2n1` [compound 1], the EC50 was 0.0986 ± 0.0011 µM on human TLR7 and 0.105 ± 0.0028 µM at human NOD2 (setting [2]). Further, the kinetic solubility in data set [1] was 1.9 µM.

As to `CCCCOc1nc(N)c2nc(O)n(Cc3ccc(C(=O)NCCOCCNC(=O)CC[C@@H](NC(=O)[C@@H](NC(=O)CNC(=O)/C=C/c4ccc(O)c(OC)c4)C(C)C)C(=O)OCC)cc3)c2n1` [compound 2], the EC50 was 0.0214 ± 0.001 µM at human TLR7 and > 10 µM on human NOD2 (setting [2]). Moreover, the solubility (kinetic) in data set [1] worked out at 3.67 µM.

Consider `CCCCOc1nc(N)c2nc(O)n(Cc3ccc(C(=O)O)cc3)c2n1` [compound 4, reference compound], for which the EC50 on human TLR7 was 0.226 ± 0.0145 µM. Moreover, in data set [1], the solubility (kinetic) turned out to be 483 µM.

In the case of `CCOC(=O)CCC(NC(=O)C(NC(=O)CNC(=O)C=Cc1ccc(O)c(OC)c1)C(C)C)C(=O)OCC` (stereo not drawn) [compound 5], the solubility (kinetic) in data set [1] was found to be 415 µM.

`CCOCc1nc2c(N)nc3ccccc3c2n1CC(C)(C)N` [compound 7, reference compound]: the EC50 was found to be 5.9 ± 1.79 µM on human TLR8 and 1.82 ± 0.097 µM at human TLR7. In addition, in data set [1], the kinetic solubility amounted to 337 µM.

For the compound `CCCCOc1nc(N)c2nc(O)n(Cc3ccc(C(=O)NCCOCCOCCNC(=O)CC[C@@H](NC(=O)[C@@H](NC(=O)CNC(=O)/C=C/c4ccc(O)c(OC)c4)C(C)C)C(=O)OCC)cc3)c2n1` [compound 22], at human TLR7, a half-maximal effect (EC50) was put at 0.419 µM and the “TLR7 agonistic activity (in words)” value is listed as “activated TLR7 in the midnanomolar range”. Further, the kinetic solubility in data set [1] stood at 85.4 µM. In addition, in data set [1] (ratio of kinetic solubilities in PBS), the “Boost in solubility over conjugate 2” value is recorded as ~25 fold. Also, the EC50 on human NOD2 (setting [2]) was > 10 µM.

On to `CCCCOc1nc(N)c2nc(O)n(Cc3ccc(C(=O)NCCCOCCOCCOCCCNC(=O)CC[C@@H](NC(=O)[C@@H](NC(=O)CNC(=O)/C=C/c4ccc(O)c(OC)c4)C(C)C)C(=O)OCC)cc3)c2n1` [compound 23], for which, on human TLR7, a half-maximal response (EC50) required 0.165 µM and the “TLR7 agonistic activity (in words)” value is “activated TLR7 in the midnanomolar range”. Besides, at human TLR7 (ratio of EC50 values), the “Enhancement of TLR7 activity over 22 and 29” value came to 2.5 fold. The solubility (kinetic) in data set [1] stood at 38.6 µM. On human NOD2 (setting [2]), the 50% effective concentration (EC50) is > 10 µM.

Consider `CCCCOc1nc(N)c2nc(O)n(Cc3ccc(C(=O)NCCCCCCNC(=O)CC[C@@H](NC(=O)[C@@H](NC(=O)CNC(=O)/C=C/c4ccc(O)c(OC)c4)C(C)C)C(=O)OCC)cc3)c2n1` [compound 24], for which the results for the EC50 at human TLR7, at human NOD2 and on human NOD2 (setting [2]) were 0.238 µM, 6.2 µM and 6.16 ± 1.25 µM, respectively. Also, at human TLR7, the “TLR7 agonistic activity (in words)” value is on record as “activated TLR7 in the midnanomolar range”. Further, the solubility (kinetic) in data set [1] amounted to 2.8 µM.

With `CCCCOc1nc(N)c2nc(O)n(Cc3ccc(C(=O)NCCOCCOCCNC(=O)[C@@H](CCC(=O)OCC)NC(=O)[C@@H](NC(=O)CNC(=O)/C=C/c4ccc(O)c(OC)c4)C(C)C)cc3)c2n1` [compound 26], the EC50 on human TLR7 is 0.247 µM; on human NOD2 (setting [2]) it was > 10 µM. The “TLR7 agonistic activity (in words)” value at human TLR7 is “activated TLR7 in the midnanomolar range”. Also, the solubility (kinetic) in data set [1] worked out at 9.2 µM.

For the compound `CCCCOc1nc(N)c2nc(O)n(Cc3ccc(C(=O)NCCOCCOCCOCCn4cc(CNC(=O)CC[C@@H](NC(=O)[C@@H](NC(=O)CNC(=O)/C=C/c5ccc(O)c(OC)c5)C(C)C)C(=O)OCC)nn4)cc3)c2n1` [compound 29], the EC50 at human TLR7 is 0.391 µM; on human NOD2 (setting [2]), > 10 µM. Moreover, the “TLR7 agonistic activity (in words)” value at human TLR7 is “activated TLR7 in the midnanomolar range”. Moreover, the solubility (kinetic) in data set [1] worked out at 35.4 µM.
